{"source": "patent US11696913B2", "about": "“Prolonged ectoparasite-controlling agent for animal” (MITSUI CHEMICALS AGRO, INC., priority 2017, dated 2023)", "key": {"Laodelphax striatellus": {"test_system": "Laodelphax striatellus", "assay": "Insecticidal testing against small brown planthopper", "assay_type": "in vivo", "conditions": "144 h, concentration 100 ppm, sprayed rice seedlings, after 6 days, read-out: pesticidal rate", "summary_of_the_method": "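Acetone solution of compound at a set concentration sprayed onto rice seedlings, air-dried, then exposed to 10 planthoppers (one group). Held at 25° C; survival rate recorded after 6 days.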"}, "Ctenocephalides felis [1]": {"test_system": "Ctenocephalides felis", "assay": "Topical treatment in-vivo test with cat flea on rats", "conditions": "topical spot-on, 25 mg/kg", "method": "(§1) Topical Treatment In-Vivo Test with American Dog Tick Nymph and Cat Flea on Rats\n(§2) Type of study and overall study design: The method is a randomized non-blinded efficacy study in accordance with European animal welfare requirements. Rats (Rattus norvegicus) were randomized based on pre-treatment flea counts. The efficacy of treatment was determined by comparison of the flea and tick counts of different treatment groups versus the placebo-treated control group. The experimental unit was the individual study animal.\n(§3) Method and route of administration: The compound was applied in a suitable solvent and carrier (more specifically, added to the following mixture: 33.3% by weight propylene carbonate, […] N-methylpyrrolidone, 0.1% by weight BHA, 0.05% by weight BHT) considering the individual body weight as topical spot-on between the shoulder blades directly onto the skin.\n(§4) Experimental infestation: On the day of treatment and weekly thereafter, 30 ticks (D. variabilis nymphs) were released onto the back of each rat, and 30 fleas (C. felis) were released onto the back of each rat 24 h later.\n(§5) Tick and Flea counting: Rats were thoroughly examined and ticks and fleas were manually removed 48 h (+4 h) after tick infestation and 24 h after flea infestation. Live fleas and live attached engorged ticks were counted. In non-evident cases, engorgement status was evaluated by squeezing the tick on a filter paper to find traces of blood as sign for engorgement."}, "Ixodes ricinus": {"test_system": "Ixodes ricinus", "assay": "In vitro contact test with adult hard ticks (Ixodes ricinus)", "conditions": "read-out: acaricidal activity", "summary_of_the_method": "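Acaricidal activity = % ticks dead or moribund after 48 h contact with acetone-deposited compound on vial walls (e.g., 900 ppm solution → 5 μg/cm^2). Ambient conditions for R. sanguineus, 21° C./85% rel. hum. for other species; heat challenge at 45-50° C. separated climbers from moribund ticks.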"}, "Ctenocephalides felis [2]": {"test_system": "Ctenocephalides felis", "assay": "In vitro contact test with fleas", "conditions": "read-out: insecticidal activity", "summary_of_the_method": "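Activity is the percentage of fleas dead or moribund at 48 h, judged by immobility or uncoordinated movement after tapping. Tubes were coated by evaporating acetone solutions (900 ppm gives 5 μg/cm^2), then held 5-10 adult fleas of both sexes at room temperature and ambient humidity.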"}, "Dermacentor variabilis [3]": {"test_system": "Dermacentor variabilis", "assay": "Systemic treatment in-vivo test with American dog tick nymph on rats", "conditions": "Dermacentor variabilis, ip, intraperitoneal injection", "method": "Systemic Treatment In-Vivo Test with American Dog Tick Nymph and Cat Flea on Rats\nType of study and overall study design: The method is a randomized non-blinded efficacy study in accordance with European animal welfare requirements. Rats (Rattus norvegicus) were randomized based on pre-treatment flea counts. The efficacy of treatment was determined by comparison of the flea and tick counts of different treatment groups versus the placebo-treated control group. The experimental unit was the individual study animal. Method and route of administration: The compound was applied in a suitable solvent and carrier (more specifically, added to glycerol formal; in case of poorly soluble compounds, a solvent mixture with up to 25% by volume of N-methyl pyrrolidone may be used.) considering the individual body weight as an intraperitoneal injection.\nas §4\nas §5, with “(±4” for “(+4”"}, "Dermacentor variabilis [4]": {"test_system": "Dermacentor variabilis", "assay": "Topical treatment in-vivo test with American dog tick nymph on rats", "conditions": "topical spot-on, 25 mg/kg", "method": "as §1, §2, §3, §4, §5"}, "[5]": {"conditions": "SD 2, read-out: Geometric mean percent reduction in live tick (Dermacentor variabilis) counts compared to untreated control rats"}, "[6]": {"conditions": "SD 9, read-out: Geometric mean percent reduction in live tick (Dermacentor variabilis) counts compared to untreated control rats"}, "[7]": {"conditions": "SD 16, read-out: Geometric mean percent reduction in live tick (Dermacentor variabilis) counts compared to untreated control rats"}, "[8]": {"conditions": "SD 23, read-out: Geometric mean percent reduction in live tick (Dermacentor variabilis) counts compared to untreated control rats"}}, "note": "Where two headings read alike, the source gives them in different places."}
{"smiles": "O=C(Nc1cccc(C(=O)Nc2c(I)cc(C(F)(C(F)(F)F)C(F)(F)F)cc2C(F)(F)F)c1F)c1ccc(C(F)(F)F)nc1", "note": "[Compound 67, N-(2-fluoro-3-((2-iodo-4-(perfluoropropan-2-yl)-6-(trifluoromethyl)phenyl)carbamoyl)phenyl)-6-(trifluoromethyl)nicotinamide]", "values": [{"measurement": "pest or weed control at 100 ppm", "setting": "Laodelphax striatellus", "result": "≥ 70", "unit": "%"}, {"measurement": "Geometric mean percent reduction in live flea (Ctenocephalides felis) counts compared to untreated control rats", "setting": "Ctenocephalides felis [1]; SD 2", "result": 98, "unit": "%"}, {"measurement": "Geometric mean percent reduction in live flea (Ctenocephalides felis) counts compared to untreated control rats", "setting": "Ctenocephalides felis [1]; SD 9", "result": 93, "unit": "%"}, {"measurement": "Geometric mean percent reduction in live flea (Ctenocephalides felis) counts compared to untreated control rats", "setting": "Ctenocephalides felis [1]; SD 16", "result": 97, "unit": "%"}, {"measurement": "Geometric mean percent reduction in live flea (Ctenocephalides felis) counts compared to untreated control rats", "setting": "Ctenocephalides felis [1]; SD 23", "result": 81, "unit": "%"}, {"measurement": "Geometric mean percent reduction in live flea (Ctenocephalides felis) counts compared to untreated control rats", "setting": "Ctenocephalides felis [1]; SD 30", "result": 79, "unit": "%"}, {"measurement": "pest or weed control at 0.2 µg/cm2, 0.2 µg/cm2", "setting": "Ixodes ricinus; dose 0.2 μg/cm^2, 48 h", "result": 90, "unit": "%"}, {"measurement": "pest or weed control at 1 µg/cm2, 1 µg/cm2", "setting": "Ixodes ricinus; dose 1 μg/cm^2, 48 h", "result": 90, "unit": "%"}, {"measurement": "pest or weed control at 5 µg/cm2, 5 µg/cm2", "setting": "Ixodes ricinus; dose 5 μg/cm^2, 48 h", "result": 90, "unit": "%"}, {"measurement": "pest or weed control at 0.04 µg/cm2, 0.04 µg/cm2", "setting": "Ctenocephalides felis [2]; dose 0.04 μg/cm^2, dead or moribund fleas after 48 h", "result": 95, "unit": "%"}, {"measurement": "pest or weed control at 0.2 µg/cm2, 0.2 µg/cm2", "setting": "Ctenocephalides felis [2]; dose 0.2 μg/cm^2, dead or moribund fleas after 48 h", "result": 95, "unit": "%"}, {"measurement": "pest or weed control at 1 µg/cm2, 1 µg/cm2", "setting": "Ctenocephalides felis [2]; dose 1 μg/cm^2, dead or moribund fleas after 48 h", "result": 95, "unit": "%"}, {"measurement": "inhibition in vivo at 2 mg/kg", "setting": "Dermacentor variabilis [3]; [5]", "result": 100, "unit": "%"}, {"measurement": "inhibition in vivo at 2 mg/kg", "setting": "Dermacentor variabilis [3]; [6]", "result": 95, "unit": "%"}, {"measurement": "inhibition in vivo at 2 mg/kg", "setting": "Dermacentor variabilis [3]; [7]", "result": 32, "unit": "%"}, {"measurement": "inhibition in vivo at 2 mg/kg", "setting": "Dermacentor variabilis [3]; [8]", "result": 20, "unit": "%"}, {"measurement": "inhibition in vivo at 10 mg/kg", "setting": "Dermacentor variabilis [3]; [5]", "result": 100, "unit": "%"}, {"measurement": "inhibition in vivo at 10 mg/kg", "setting": "Dermacentor variabilis [3]; [6]", "result": 100, "unit": "%"}, {"measurement": "inhibition in vivo at 10 mg/kg", "setting": "Dermacentor variabilis [3]; [7]", "result": 99, "unit": "%"}, {"measurement": "inhibition in vivo at 10 mg/kg", "setting": "Dermacentor variabilis [3]; [8]", "result": 75, "unit": "%"}, {"measurement": "inhibition in vivo at 10 mg/kg", "setting": "Dermacentor variabilis [3]; SD 30, read-out: Geometric mean percent reduction in live tick (Dermacentor variabilis) counts compared to untreated control rats", "result": 57, "unit": "%"}, {"measurement": "Geometric mean percent reduction in live tick (Dermacentor variabilis) counts compared to untreated control rats", "setting": "Dermacentor variabilis [4]; SD 2", "result": 57, "unit": "%"}, {"measurement": "Geometric mean percent reduction in live tick (Dermacentor variabilis) counts compared to untreated control rats", "setting": "Dermacentor variabilis [4]; SD 9", "result": 98, "unit": "%"}, {"measurement": "Geometric mean percent reduction in live tick (Dermacentor variabilis) counts compared to untreated control rats", "setting": "Dermacentor variabilis [4]; SD 16", "result": 100, "unit": "%"}, {"measurement": "Geometric mean percent reduction in live tick (Dermacentor variabilis) counts compared to untreated control rats", "setting": "Dermacentor variabilis [4]; SD 23", "result": 100, "unit": "%"}, {"measurement": "Geometric mean percent reduction in live tick (Dermacentor variabilis) counts compared to untreated control rats", "setting": "Dermacentor variabilis [4]; SD 30", "result": 77, "unit": "%"}]}
